For assay [1], the target named is human PD-L1 (Homo sapiens (Human), UniProt Q9NZQ7). Description: T cell activation luciferase reporter cell culture system (T Cell Activation Assay). In kind it is cell-based. As to conditions: luciferase reporter assay; PD-L1 aAPC/CHO-K1 cells with PD-1 effector Jurkat T cells.
Assay [2] has as its target PD-L1 His protein / PD-1 Fc protein (Homo sapiens (Human), UniProt Q9NZQ7). The assay is described as follows: HTRF Assay (PD-1/PD-L1 interaction). The assay is classed as binding. The settings on record: PD-L1 His 6 nM, PD-1 Fc 6 nM. (Time-resolved FRET reads energy transfer from a long-lived donor to a nearby acceptor.)

Chain of human PD-L1 (Q9NZQ7 19-290): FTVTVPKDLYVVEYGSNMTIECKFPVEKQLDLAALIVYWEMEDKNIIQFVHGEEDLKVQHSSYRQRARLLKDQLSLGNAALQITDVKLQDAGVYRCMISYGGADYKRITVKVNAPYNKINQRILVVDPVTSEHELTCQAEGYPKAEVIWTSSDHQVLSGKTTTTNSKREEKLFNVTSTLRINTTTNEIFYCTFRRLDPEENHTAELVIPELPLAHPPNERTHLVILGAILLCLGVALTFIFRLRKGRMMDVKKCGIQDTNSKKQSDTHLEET
Chain of PD-L1 His protein / PD-1 Fc protein (Q9NZQ7 19-238): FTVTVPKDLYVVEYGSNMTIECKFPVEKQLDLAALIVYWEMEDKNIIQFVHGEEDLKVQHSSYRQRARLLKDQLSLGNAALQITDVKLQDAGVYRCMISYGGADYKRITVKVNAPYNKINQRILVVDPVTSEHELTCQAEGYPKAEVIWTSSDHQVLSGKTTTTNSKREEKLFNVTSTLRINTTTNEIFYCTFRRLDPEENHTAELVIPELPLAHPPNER

Regarding `COc1nc(-c2cccc(-c3ccnc(-c4ccc5c(c4)CNC5)c3Cl)c2Cl)ccc1CNCCO` [Compound 160, 2-(((6-(2-chloro-3-(3-chloro-2-(isoindolin-5-yl)pyridine-4-yl)phenyl)-2-methoxypyridin-3-yl)methyl)amino)ethan-1-ol], the EC50 in assay [1] worked out at 150 nM. For the same compound, in assay [2], the IC50 was determined as 0.87 nM.
The matching figures for `COc1nc(-c2cccc(-c3ccnc(-c4ccc5c(c4)CNC5)c3Cl)c2Cl)ccc1CNC[C@H](C)O` [Compound 161, (S)-1-(((6-(2-chloro-3-(3-chloro-2-(isoindolin-5-yl)pyridine-4-yl)phenyl)-2-methoxypyridin-3-yl)methyl)amino)propan-2-ol]: 387 nM and 0.73 nM.
The matching figures for `COc1nc(-c2cccc(-c3ccnc(-c4ccc5c(c4)CNC5)c3Cl)c2Cl)ccc1CNC1CCN(C(C)=O)CC1` [Compound 162, 1-(4-(((6-(2-chloro-3-(3-chloro-2-(isoindolin-5-yl)pyridine-4-yl)phenyl)-2-methoxypyridin-3-yl)methyl)amino)piperidin-1-yl)ethan-1-one]: 5160 nM and 0.78 nM.
In the same order, the values of `COc1nc(-c2cccc(-c3ccnc(-c4ccc5c(c4)CNC5)c3Cl)c2Cl)ccc1CN(C)C1CCN(C(C)=O)CC1` [Compound 163, 1-(4-(((6-(2-chloro-3-(3-chloro-2-(isoindolin-5-yl)pyridine-4-yl)phenyl)-2-methoxypyridin-3-yl)methyl)(methyl)amino)piperidin-1-yl)ethan-1-one] are no less than 10000 nM and 3.29 nM.
As to `COc1nc(-c2ccnc(-c3cccc4c3CC[C@@H]4Nc3nc(OC)c(CNC4(C(=O)O)CC4)cc3C(F)(F)F)c2Cl)ccc1CNC[C@@H]1CCC(=O)N1` [Compound 164, 1-(((6-(((S)-4-(3′-chloro-6-methoxy-5-(((((S)-5-oxopyrrolidin-2-yl)methyl)amino)methyl)-[2,4′-bipyridin]-2′-yl)-2,3-dihydro-1H-inden-1-yl)amino)-2-methoxy-5-(trifluoromethyl)pyridine-3-yl)methyl)amino)cyclopropane-1-carboxylic acid], the EC50 in assay [1] was found to be 66.6 nM. It took 0.49 nM to reach half-maximal inhibition in assay [2] (IC50).
The matching figures for `COc1nc(-c2ccnc(-c3cccc4c3CC[C@@H]4Oc3nc(OC)c(CNC[C@@H](C)O)cc3C(F)(F)F)c2Cl)ccc1CNC[C@@H]1CCC(=O)N1` [Compound 165, (S)-5-((((3′-chloro-2′-((S)-1-((5-((( ®-2-hydroxypropyl)amino)methyl)-6-methoxy-3-(trifluoromethyl)pyridine-2-yl)oxy)-2,3-dihydro-1H-inden-4-yl)-6-methoxy-[2,4′-bipyridin]-5-yl)methyl)amino)methyl)pyridine1332ne-2-one]: 4.15 nM and 0.35 nM.
In the same order, the values of `COc1nc(-c2ccnc(-c3cccc4c3CC[C@@H]4Oc3nc(OC)c(CNC[C@@H]4CCC(=O)N4)cc3C(F)(F)F)c2Cl)ccc1CNC[C@@H]1CCC(=O)N1` [Compound 166, (S)-5-((((3′-chloro-6-methoxy-2′-((S)-1-((6-methoxy-5-(((((S)-5-oxopyrrolidin-2-yl)methyl)amino)methyl)-3-(trifluoromethyl)pyridine-2-yl)oxy)-2,3-dihydro-1H-inden-4-yl)-[2,4′-bipyridin]-5-yl)methyl)amino)methyl)pyridine1332ne-2-one] are 1.98 nM and 0.18 nM.
The matching figures for `COc1nc(-c2cccc(-c3ccnc(-c4ccc5c(CNC6CCN(C(C)=O)CC6)nn(C)c5c4)c3Cl)c2Cl)ccc1CNC[C@@H]1CCC(=O)N1` [Compound 167, (S)-5-((((6-(3-(2-(3-(((1-acetylpiperidin-4-yl)amino)methyl)-1-methyl-1H-indazol-6-yl)-3-chloropyridin-4-yl)-2-chlorophenyl)-2-methoxypyridin-3-yl)methyl)amino)methyl)pyridine1332ne-2-one]: 18.4 nM and 1.47 nM.
In assay [1], `COc1nc(-c2cccc(-c3ccnc(-c4ccc5c(CN(C)C6CCN(C(C)=O)CC6)nn(C)c5c4)c3Cl)c2Cl)ccc1CNC[C@@H]1CCC(=O)N1` [Compound 168, (S)-5-((((6-(3-(2-(3-(((1-acetylpiperidin-4-yl)(methyl)amino)methyl)-1-methyl-1H-indazol-6-yl)-3-chloropyridin-4-yl)-2-chlorophenyl)-2-methoxypyridin-3-yl)methyl)amino)methyl)pyridine1332ne-2-one] returned an EC50 of 12.5 nM. Also, it took 3.6 nM to reach half-maximal inhibition in assay [2] (IC50).
The matching figures for `CNCc1ccc(-c2cccc(-c3ccnc(-c4cc(CNC[C@@H](O)CC(=O)O)cc(OC)c4)c3Cl)c2Cl)nc1OC` [Compound 169, (S)-4-((3-(3-chloro-4-(2-chloro-3-(6-methoxy-5-((methylamino)methyl)pyridine-2-yl)phenyl)pyridine-2-yl)-5-methoxybenzyl)amino)-3-hydroxybutanoic acid]: 632 nM and 1.85 nM.
The matching figures for `CNCc1ccc(-c2cccc(-c3ccnc(-c4cc(CNCCC(=O)O)cc(OC)c4)c3Cl)c2Cl)nc1OC` [Compound 170, 3-((3-(3-chloro-4-(2-chloro-3-(6-methoxy-5-((methylamino)methyl)pyridine-2-yl)phenyl)pyridine-2-yl)-5-methoxybenzyl)amino)propanoic acid]: 415 nM and 0.73 nM.
As to `CNCc1ccc(-c2cccc(-c3ccnc(-c4cc(CN5CC[C@H](C(=O)O)C5)cc(OC)c4)c3Cl)c2Cl)nc1OC` [Compound 171, (S)-1-(3-(3-chloro-4-(2-chloro-3-(6-methoxy-5-((methylamino)methyl)pyridine-2-yl)phenyl)pyridine-2-yl)-5-methoxybenzyl)pyrrolidine-3-carboxylic acid], in assay [1], the midpoint of the response, the EC50, lay at 670 nM. Besides, the IC50 in assay [2] amounted to 1.65 nM.
The matching figures for `CNCc1ccc(-c2cccc(-c3ccnc(-c4cc(CN5CC(CC(=O)O)C5)cc(OC)c4)c3Cl)c2Cl)nc1OC` [Compound 172, 2-(1-(3-(3-chloro-4-(2-chloro-3-(6-methoxy-5-((methylamino)methyl)pyridine-2-yl)phenyl)pyridine-2-yl)-5-methoxybenzyl)pyridine1333-3-yl)acetic acid]: no less than 10000 nM and 3.32 nM.
In the same order, the values of `CNCc1ccc(-c2cccc(-c3ccnc(-c4cc(CN5CC6(CC(C(=O)O)C6)C5)cc(OC)c4)c3Cl)c2Cl)nc1OC` [Compound 173, 2-(3-(3-chloro-4-(2-chloro-3-(6-methoxy-5-((methylamino)methyl)pyridine-2-yl)phenyl)pyridine-2-yl)-5-methoxybenzyl)-2-azaspiro[3.3]heptane-6-carboxylic acid] are no less than 10000 nM and 32.1 nM.
The matching figures for `CNCc1ccc(-c2cccc(-c3ccnc(-c4cc(CNC56CC(C(=O)O)(C5)C6)cc(OC)c4)c3Cl)c2Cl)nc1OC` [Compound 174, 3-((3-(3-chloro-4-(2-chloro-3-(6-methoxy-5-((methylamino)methyl)pyridine-2-yl)phenyl)pyridine-2-yl)-5-methoxybenzyl)amino)bicyclo[1.1.1]pentane-1-carboxylic acid]: no less than 10000 nM and 23.6 nM.

Broadly, the EC50 is the concentration giving half of the maximal effect. Broadly, the IC50 is the concentration at which inhibition is half-maximal. A low value points to greater potency in that assay.

The values above are taken from US20240246964A1 (Arbutus Biopharma Corporation, priority 2021, published 2024).
